Measured values as given in publication PMC4209917 (Molecular cancer therapeutics, 2014).

Experiments:
[1] = target: T1, Choline kinase alpha (ChoK) (Homo sapiens, UniProt P35790); test: […]-choline phosphorylation in intact MDA-MB-231 cells, […] h; type: cell-based
[2] = target: T1, Choline kinase alpha (ChoK); test: […]-choline phosphorylation in MDA-MB-231 cells; type: cell-based

T1 sequence (P35790 whole entry): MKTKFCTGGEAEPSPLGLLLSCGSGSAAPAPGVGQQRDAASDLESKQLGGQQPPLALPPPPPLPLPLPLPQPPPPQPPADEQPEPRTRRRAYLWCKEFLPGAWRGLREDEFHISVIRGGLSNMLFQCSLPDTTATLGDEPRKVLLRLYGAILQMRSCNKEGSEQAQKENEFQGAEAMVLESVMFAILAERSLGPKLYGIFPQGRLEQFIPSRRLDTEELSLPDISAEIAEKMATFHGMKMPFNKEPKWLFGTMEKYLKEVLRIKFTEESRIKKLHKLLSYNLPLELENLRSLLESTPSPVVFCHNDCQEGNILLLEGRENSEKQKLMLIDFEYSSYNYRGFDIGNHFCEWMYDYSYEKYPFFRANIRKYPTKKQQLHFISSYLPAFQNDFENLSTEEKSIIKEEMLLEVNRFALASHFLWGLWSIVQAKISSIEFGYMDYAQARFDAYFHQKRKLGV

With `CN(C)c1cc[n+](Cc2ccc(CCCCc3ccc(C[n+]4ccc(N(C)C)cc4)cc3)cc2)cc1` [MN58b, 1,1′-((butane-1,4-diylbis(4,1-phenylene))bis(methylene))bis(4-(dimethylamino)pyridin-1-ium) bromide] the IC50 [1] was 2.3 µM.
`CC1(C)C(/C=C/C=C/C=C/C=C2\N(CCO)c3ccccc3C2(C)C)=[N+](CCO)c2ccccc21` [JAS239, 1-(2-hydroxyethyl)-2-((1E,3E,5E)-7-((Z/E)-1-(2-hydroxyethyl)-3,3-dimethylindolin-2-ylidene)hepta-1,3,5-trien-1-yl)-3,3-dimethyl-3H-indol-1-ium chloride] gave an IC50 [2] of 4.6 µM.
